Reference: patent US5156846A, “Percutaneous drug delivery system” (University of Utah, priority 1991, dated 1992)
Where two headings read alike, the source gives them in different places.

Legend:
[1] = Effect of pH on drug penetration through normal untreated hairless mouse skin (Example 6A); type: in vitro ADME; conditions: mouse
[2] = Effect of pH on drug penetration through hairless mouse skin pretreated with Sigma papain (Example 6B); type: in vitro ADME; parameters: E: unit not given here; conditions: mouse, read-out: P (permeability)
Protocol: (§1) B. Effect of pH on drug penetration through hairless mouse skin pretreated with Sigma papain of concentration 0.093 mg/ml for 24 hours

[3] = test system: hairless mouse skin pretreated with Sigma papain; test: as above; type: in vitro ADME; parameters: E: unit not given here; conditions: for E: Sigma papain 0.093 mg/ml for 24 hours
Protocol: as §1

Nude Mouse Skin [4] = test: Percent urinary recovery of radiolabeled chemicals and protein through nude mouse skin immediately following papain treatment, and controls (Example 1A)
Protocol: Various anionic, cationic, and nonionic chemicals were utilized as model compounds to determine the influence of proteolytic enzymes of the transdermal penetration of these substances. […] Additional studies were performed using ^14 -C-labeled albumin, lysozyme, and insulin to determine the ability of the proteolytic enzymes to enhance the percutaneous absorption of larger molecules.
Two hundred μl of this solution was applied on to 1 cm^2 areas on the back of congenitally athymic nude mice. The 1 cm^2 areas were covered with folded gauze pads to absorb the excess papain solution, then the areas were occluded with a transparent dressing (Bioclusive Tape) and an adhesive tape. Each mouse was individually housed in separate cages for 24 hours. At the end of this time, residual papain on the surface of the mouse's skin was removed by washing. After cleansing the skin, 150 μl of radiolabeled material was applied separately on each marked area of mouse skin and covered with gauze sponge and Bioclusive tape and adhesive tape. Mice were kept in metabolism cages, one animal per cage, and urine samples collected for scintillation counting to determine the quantity of radiolabeled materials being excreted. Parallel studies were conducted simultaneously on non- papain-treated living mice. These studies served as controls against which the treated animals were measured.

Nude Mouse Skin [5] = test: In vivo skin recovery following papain treatment: percent urinary recovery 7 days after papain (Example 1B); parameters: species or system congenitally athymic nude mice
Protocol: Experiments were conducted to measure the time required for papain-treated mice to return to normal levels of absorption. These experiments were conducted as described in Example 1A, except that following the removal of papain from the mouse's skin, the mice were maintained separately in metabolism cages for varying periods of time prior to the application of the labeled model compounds. After various time intervals, 150 μl of radiolabeled chemicals were applied separately on the 1 cm^2 marked areas on the backs of the mice, where papain had previously been applied. The mice were then kept in separate metabolism cages and at time intervals of 17, 41, and 65 hours, urine was collected and counted using a scintillation counter.

[6] = test system: Papain-Treated Athymic Nude Mice Skin; test: In vitro permeation through excised papain-treated athymic nude mouse skin, Franz-type diffusion cells (Example 2); type: in vitro ADME, congenitally athymic nude mice
Protocol: Because of some complications encountered during studies utilizing papain treatment by in vivo method (e.g. extended excretion due to storage in various body compartments, delayed response times, etc.) it was decided that additional studies should be conducted wherein the mouse skin was allowed to recover in situ, then excised after various time intervals and evaluated by in vitro permeation methods.
These experiments were conducted by preparing, applying, and occluding papain solutions onto the backs of congenitally athymic nude mice in the same manner as described in Example 1A. At the end of the 24-hour papain treatment, the skin was again cleansed of excess solution. Skin was then excised from part of the animals. The remainder of the animals were housed individually in regular cages for various periods of time (24 hours and 48 hours), after which the treated areas were excised. Immediately following excision of the treated areas, the skins were mounted over Franz-Type, Single-Compartment Diffusion Cells. Four hundred μl of saturated solutions of radiolabeled citric acid, TEAB, glucose, and hydrocortisone were applied, individually, to the exposed surface of the mounted skins on the donor chamber. Saturated solutions of each of these substances were used in order to ensure maximum availability of labeled substances. At varying time intervals, 100 μl samples were removed from the receiver chambers for scintillation counting. All experiments were conducted at 25° C.

Hairless mouse skin = conditions: papain 0.093 mg/ml, pH 7.4, 24 hours pretreatment
Protocol: Hairless mouse skin was pretreated with papain at a concentration of 0.093 mg/ml at pH 7.4 for 24 hours.

mouse skin [7] = test system: mouse skin
Text: In this experiment, varying amounts of Sigma papain, activated with cysteine and EDTA, were used.

skin = test: Pretreatment of skin samples with papain: drug penetration, skin damage and activation
Protocol: Whatever the enzyme or enzymes selected, each is typically admixed with a liquid, such as water or ethanol to form an enzyme preparation. The concentration of enzymes(s) in liquid will be of a sufficient quantity to increase the skin's permeability to selected drugs over a predetermined time period. […] Concentrations of papain in water will generally be greater than about 0.019 milligrams/milliliter (mg/ml). Preferred concentrations of papain in water will be less than about 0.093 mg/ml.
For example, papain from Sigma Chemical may be activated with the chelating agent ethylenediaminetetraacetic acid ("EDTA"). […] Amounts of EDTA in a papain enzyme preparation will vary from 2 mg/ml to about 20 mg/ml. The amino acid cysteine can also serve as an activating agent.

[8] = test system: normal untreated hairless mouse skin; test: Effect of pH on drug penetration through normal untreated hairless mouse skin (Example 6A); type: in vitro ADME; conditions: pH 8.0
mouse skin [9] = test: Citric acid penetration through mouse skin with two sources of papain (Example 8); type: in vitro ADME; conditions: FIG. 20, 0.170 mg papain in 0.1 ml of water; Sigma papain not activated
Protocol: Each enzyme preparation contained 0.170 mg of papain dissolved in 0.1 ml of water. One sample of papain was obtained from Allergan. The other was obtained from Sigma Chemical. […] The Sigma Chemical papain was not activated in this experiment.

mouse skin [10] = test: Skin damage as measured by bleeding of mouse skin (Example 5); type: in vivo
Protocol: The absolute amounts and relative concentrations of an enzyme preparation containing papain to determine skin damage as measured by bleeding of mouse skin was determined.

[11] = pH 5.9, read-out: P (permeability)
[12] = pH 6.6, read-out: P (permeability)
[13] = pH 5.9, Sigma papain 0.093 mg/ml for 24 hours, pH 5.9
[14] = pH 6.6, Sigma papain 0.093 mg/ml for 24 hours, pH 6.6
[15] = pH 7.4, Sigma papain 0.093 mg/ml for 24 hours, pH 7.4
[16] = control, no papain treatment, immediate
[17] = immediately following papain treatment
[18] = 7 days following papain treatment
[19] = 7 hours exposure, 1 cm^2 section of skin, saturated solution in water, 25° C
[20] = papain greater than 0.093 mg/ml, pH 7.4

## CC(=O)OCC[N+](C)(C)C.[Cl-] [Acetylcholine Chloride, acetylcholine chloride]
[1]; [11]
  Papp: 0.0291 ×10⁻⁶ cm/s
[1]; [12]
  Papp: 0.026 ×10⁻⁶ cm/s
[1]; pH 7.4, read-out: P (permeability)
  Papp: 0.032 ×10⁻⁶ cm/s
[1]; pH 8.0, read-out: P (permeability)
  Papp: 0.0466 ×10⁻⁶ cm/s
[2]; [13]
  Papp: 3 ×10⁻⁶ cm/s
[2]; [14]
  Papp: 3.88 ×10⁻⁶ cm/s
[2]; [15]
  Papp: 3.23 ×10⁻⁶ cm/s
[2]; pH 8, Sigma papain 0.093 mg/ml for 24 hours, pH 8.0
  Papp: 3.14 ×10⁻⁶ cm/s
[3]; pH 5.9
  E: 103.09
[3]; pH 6.6
  E: 149.23
[3]; pH 7.4
  E: 100.94
[3]; pH 8.0
  E: 67.38

## C[C@]12CCC(=O)C=C1CC[C@@H]1[C@@H]2[C@@H](O)C[C@@]2(C)[C@H]1CC[C@]2(O)C(=O)CO [Hydrocortisone, hydrocortisone]
Nude Mouse Skin [4]; [16]
  Percent Recovery (urinary recovery): 2.5%
Nude Mouse Skin [4]; [17]
  Percent Recovery (urinary recovery): 24.7%
Nude Mouse Skin [5]; [18]
  Percent Recovery (urinary recovery): 0.6%
[6]; 7 hours exposure, 1 cm^2 section of skin, saturated solution in ethanol, 25° C
  transdermal penetration: about 125 μg

## OC[C@H]1OC(O)[C@H](O)[C@@H](O)[C@@H]1O (stereo partly shown) [Glucose, glucose]
Nude Mouse Skin [4]; [16]
  Percent Recovery (urinary recovery): 0.07%
Nude Mouse Skin [4]; [17]
  Percent Recovery (urinary recovery): 1.8%
Nude Mouse Skin [5]; [18]
  Percent Recovery (urinary recovery): 0.1%
[6]
  transdermal penetration: about 22 mg

## CC[N+](CC)(CC)CC.[Br-] [TEAB, tetraethylammonium bromide]
Nude Mouse Skin [5]; mouse, in vivo, topical or ocular
  Percent Recovery (urinary recovery): 5.3%
[6]; [19]
  transdermal penetration: ~19 mg
Hairless mouse skin
  increase in absorption in comparison to normal, untreated mouse skin: 33 fold
Mouse skin [7]
  drug penetration through mouse skin: varies directly with the amount of papain used
skin
  penetration through the skin: increases the penetration

## C=CCc1ccccc1OCC(O)CNC(C)C (stereo not shown) [Alprenolol, alprenolol]
[3]; pH 5.9
  E: 22.39
[3]; pH 6.6
  E: 17.18
[3]; pH 7.4
  E: 7.17
[3]; pH 8.0
  E: 7.86
[3]; mouse, pH 8
  P (permeability): 1.65 = 10^-6 cm/sec

## CC(=O)[C@H]1CC[C@H]2[C@@H]3CCC4=CC(=O)CC[C@]4(C)[C@H]3CC[C@]12C [Progesterone, progesterone]
[1]; [11]
  Papp: 2.88 ×10⁻⁶ cm/s
[1]; [12]
  Papp: 2.92 ×10⁻⁶ cm/s
[8]
  P (permeability): 0.247 ×10⁻⁶ cm/s
[2]; [13]
  Papp: 3.6 ×10⁻⁶ cm/s
[2]; [14]
  Papp: 4.39 ×10⁻⁶ cm/s
[2]; [15]
  Papp: 3.41 ×10⁻⁶ cm/s
[3]; pH 5.9
  E: 1.25
[3]; pH 6.6
  E: 1.50
[3]; pH 7.4
  E: 1.17
[3]; pH 8.0
  E: 1.17

## Insulin: 14-C-labeled insulin
Nude Mouse Skin [5]; [18]
  Percent Recovery (urinary recovery): 0.0%

## Lysozyme: 14-C-labeled lysozyme
Nude Mouse Skin [5]; [18]
  Percent Recovery (urinary recovery): 0.0%

## Albumin: 14-C-labeled albumin
Nude Mouse Skin [5]; [18]
  Percent Recovery (urinary recovery): 0.0%

## O=C(O)CC(O)(CC(=O)O)C(=O)O [Citric Acid, citric acid]
Nude Mouse Skin [5]; [18]
  Percent Recovery (urinary recovery): 0.2%
[6]; [19]
  transdermal penetration: about 55 mg
Mouse skin [9]
  penetration through mouse skin: enhanced to a greater extent by the Allergan papain than that of Sigma Chemical

## CC(=O)CC(c1ccccc1)c1c(O)c2ccccc2oc1=O (stereo not shown) [Warfarin, warfarin]
[2]; Sigma papain 0.093 mg/ml for 24 hours, pH 5.9
  Papp: 1.27 ×10⁻⁶ cm/s
[2]; Sigma papain 0.093 mg/ml for 24 hours, pH 6.6
  Papp: 1.2 ×10⁻⁶ cm/s
[2]; Sigma papain 0.093 mg/ml for 24 hours, pH 7.4
  Papp: 0.99 ×10⁻⁶ cm/s
[2]; Sigma papain 0.093 mg/ml for 24 hours, pH 8.0
  Papp: 1.21 ×10⁻⁶ cm/s

B1: papain: A preferred enzyme is papain, which is readily available from Allergan of Irvine, Calif., Sigma Chemical Company of St. Louis, Mo., and other sources (protein, UniProt P00784 134-345, looked up)
Papain: IPEYVDWRQKGAVTPVKNQGSCGSCWAFSAVVTIEGIIKIRTGNLNEYSEQELLDCDRRSYGCNGGYPWSALQLVAQYGIHYRNTYPYEGVQRYCRSREKGPYAAKTDGVRQVQPYNEGALLYSIANQPVSVVLEAAGKDFQLYRGGIFVGPCGNKVDHAVAAVGYGPNYILIKNSWGTGWGENGYIRIKRGTGNSYGVCGLYTSSFYPVKN
Mouse skin [10]; absolute amount of papain: 0.010 mg/0.108 ml
  time until bleeding observed: > 24 h
Mouse skin [10]; absolute amount of papain: 0.030 mg/0.108 ml
  time until bleeding observed: about 5.0 hrs
Mouse skin [10]; absolute amount of papain: 0.050 mg/0.180 ml
  time until bleeding observed: about 1.5 hrs
Mouse skin [10]; absolute amount of papain: 0.070 mg/0.250 ml
  time until bleeding observed: about 0.5 hrs
Mouse skin [10]; concentration of papain: 0.010 mg/0.108 ml
  time until bleeding observed: > 24 h
Mouse skin [10]; concentration of papain: 0.020 mg/0.108 ml
  time until bleeding observed: > 24 h
Mouse skin [10]; concentration of papain: 0.030 mg/0.108 ml
  time until bleeding observed: ~24 h
Mouse skin [10]; concentration of papain: 0.040 mg/0.108 ml
  time until bleeding observed: ~24 h
skin; 0.10 molar cysteine with 0.0375 molar EDTA as activating agent
  penetration of drug through the skin: greater penetration of drug through the skin
skin; [20]
  drug penetration: greater drug penetration
  skin damage: damages the skin, possibly leading to bleeding
